Values joined by “and” are separate entries in the source; they are usually repeats but may differ in a detail not shown here. Equal entries are not always repeated. Toxic doses and inconclusive results are not listed. Cut-off read from the data, not from the text of the source: active = T/C of 150% or more; inactive = T/C below 125%.
Test system: L1210 leukemia ip in BDF1 mice, survival T/C
Experiment: NCI In Vivo Anticancer Drug Screen. Data for tumor model L1210 Leukemia (intraperitoneal) in B6D2F1 (BDF1) mice
Conditions: endpoint: mean survival time, higher = longer survival
Procedure, shortened: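 Transplanted-tumor mice were given test agent; controls received vehicle only. Survival readings from the two groups were divided (treated over control).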

[1] = dose: 100.0 mg/kg/injection, schedule: Q04DX003 (ip), vehicle: saline with Tween-80
[2] = dose: 200.0 mg/kg/injection, schedule: Q04DX003 (ip), vehicle: saline with Tween-80
[3] = dose: 400.0 mg/kg/injection, schedule: Q04DX003 (ip), vehicle: saline with Tween-80
[4] = dose: 100.0 mg/kg/injection, schedule: Q01DX009 (ip), vehicle: Klucel (hydroxypropylcellulose) (HPC)
[5] = dose: 200.0 mg/kg/injection, schedule: Q01DX009 (ip), vehicle: Klucel (hydroxypropylcellulose) (HPC)
[6] = dose: 400.0 mg/kg/injection, schedule: Q01DX009 (ip), vehicle: Klucel (hydroxypropylcellulose) (HPC)
[7] = dose: 75.0 mg/kg/injection, schedule: Q01DX001 (ip), vehicle: other
[8] = dose: 100.0 mg/kg/injection, schedule: Q01DX001 (ip), vehicle: carboxymethylcellulose (CMC)
[9] = dose: 200.0 mg/kg/injection, schedule: Q01DX001 (ip), vehicle: carboxymethylcellulose (CMC)
[10] = dose: 100.0 mg/kg/injection, schedule: Q01DX001 (ip), vehicle: saline
[11] = dose: 200.0 mg/kg/injection, schedule: Q01DX001 (ip), vehicle: saline
[12] = dose: 150.0 mg/kg/injection, schedule: Q01DX001 (ip), vehicle: other
[13] = dose: 100.0 mg/kg/injection, schedule: Q01DX009 (ip), vehicle: saline

Measured: T/C

N#CCc1ccccc1NC(=O)CCl
inactive: dose: 100.0 mg/kg/injection, schedule: Q01DX001 (ip), vehicle: saline with Tween-80 100 % of control | dose: 200.0 mg/kg/injection, schedule: Q01DX001 (ip), vehicle: saline with Tween-80 106 % of control | dose: 400.0 mg/kg/injection, schedule: Q01DX001 (ip), vehicle: saline with Tween-80 108 % of control

COC(=O)CCCC1CC(=O)c2c(c(O)c3ccccc3c2O)C1=O (stereo not drawn)
inactive: dose: 100.0 mg/kg/injection, schedule: Q01DX005 (ip), vehicle: saline with Tween-80 92 % of control | [1] 119 % of control | dose: 200.0 mg/kg/injection, schedule: Q01DX005 (ip), vehicle: saline with Tween-80 95 % of control | [2] 105 % of control | dose: 400.0 mg/kg/injection, schedule: Q01DX005 (ip), vehicle: saline with Tween-80 97 % of control | [3] 103 % of control

CCCCCCCCCCCCCCCCCCNC(=O)Oc1ccc(Cl)c(C)c1
inactive: [4] 88 % of control | dose: 100.0 mg/kg/injection, schedule: Q04DX003 (ip), vehicle: gum acacia 88 % of control | [5] 92 % of control | dose: 200.0 mg/kg/injection, schedule: Q04DX003 (ip), vehicle: gum acacia 86 % of control | [6] 92 % of control | dose: 400.0 mg/kg/injection, schedule: Q04DX003 (ip), vehicle: gum acacia 89 % of control

c1cncc(SC23CC4CC(CC(C4)C2)C3)c1
inactive: [4] 106 % of control | [5] 93 % of control | [6] 106 % of control

O=C1C=CC(=O)N1c1ccc(O)cc1
inactive: dose: 1.25 mg/kg/injection, schedule: Q01DX009 (ip), vehicle: Klucel (hydroxypropylcellulose) (HPC) 105 % of control | dose: 2.5 mg/kg/injection, schedule: Q01DX009 (ip), vehicle: Klucel (hydroxypropylcellulose) (HPC) 107 % of control | dose: 2.5 mg/kg/injection, schedule: Q04DX003 (ip), vehicle: Klucel (hydroxypropylcellulose) (HPC) 96 % of control | dose: 5.0 mg/kg/injection, schedule: Q01DX009 (ip), vehicle: Klucel (hydroxypropylcellulose) (HPC) 102 % of control | dose: 5.0 mg/kg/injection, schedule: Q04DX003 (ip), vehicle: Klucel (hydroxypropylcellulose) (HPC) 95 % of control

O=C(O)CC1(C(=O)O)CC2C=CC1C2 (stereo not drawn)
inactive: [8] 97 % of control and 105 % of control | dose: 100.0 mg/kg/injection, schedule: Q04DX002 (ip), vehicle: carboxymethylcellulose (CMC) 97 % of control and 98 % of control | dose: 100.0 mg/kg/injection, schedule: Q04DX003 (ip), vehicle: carboxymethylcellulose (CMC) 95 % of control and 97 % of control | [9] 97 % of control and 91 % of control | dose: 200.0 mg/kg/injection, schedule: Q04DX002 (ip), vehicle: carboxymethylcellulose (CMC) 97 % of control and 90 % of control | dose: 200.0 mg/kg/injection, schedule: Q04DX003 (ip), vehicle: carboxymethylcellulose (CMC) 97 % of control and 87 % of control | dose: 400.0 mg/kg/injection, schedule: Q01DX001 (ip), vehicle: carboxymethylcellulose (CMC) 99 % of control and 103 % of control | dose: 400.0 mg/kg/injection, schedule: Q04DX002 (ip), vehicle: carboxymethylcellulose (CMC) 87 % of control and 90 % of control | dose: 400.0 mg/kg/injection, schedule: Q04DX003 (ip), vehicle: carboxymethylcellulose (CMC) 94 % of control and 90 % of control

CCOC(=O)/C=C(\CC(=O)O)Nc1ccccc1
inactive: [10] 90 % of control | [11] 93 % of control | dose: 400.0 mg/kg/injection, schedule: Q01DX001 (ip), vehicle: saline 95 % of control

COc1ccc2nc(NC3=NCCO3)sc2c1
inactive: [4] 98 % of control | [5] 94 % of control | [6] 93 % of control

NCC(c1ccccc1)C(Cc1ccccc1)[N+](=O)[O-] (stereo not drawn)
inactive: [7] 115 % of control | [12] 104 % of control

CC(=O)Nc1cccc2ccccc12
inactive: [1] 97 % of control | [2] 101 % of control | [3] 100 % of control

CN1C(c2ccco2)NC(=O)C12CCN(Cc1ccccc1)CC2 (stereo not drawn)
inactive: [8] 101 % of control | [9] 93 % of control

CC(C)=CCNc1ncnc2c1ncn2C1OC(CO)C(O)C1O (stereo not drawn)
inactive: dose: 50.0 mg/kg/injection, schedule: Q01DX001 (ip), vehicle: saline 98 % of control | dose: 50.0 mg/kg/injection, schedule: Q01DX009 (ip), vehicle: saline 118 % of control | dose: 50.0 mg/kg/injection, schedule: Q01DX015 (ip), vehicle: saline 108 % of control | [10] 93 % of control | [13] 110 % of control | dose: 100.0 mg/kg/injection, schedule: Q04DX003 (ip), vehicle: Klucel (hydroxypropylcellulose) (HPC) 93 % of control | [1] 96 % of control | dose: 150.0 mg/kg/injection, schedule: Q01DX015 (ip), vehicle: saline 113 % of control | [11] 96 % of control | dose: 200.0 mg/kg/injection, schedule: Q04DX003 (ip), vehicle: Klucel (hydroxypropylcellulose) (HPC) 104 % of control | [2] 102 % of control

CN(N=O)C(=O)NCCNc1ncnc2nc[nH]c12
inactive: dose: 43.0 mg/kg/injection, schedule: Q01DX Z (ip), vehicle: carboxymethylcellulose (CMC) 86 % of control | dose: 87.0 mg/kg/injection, schedule: Q01DX Z (ip), vehicle: carboxymethylcellulose (CMC) 93 % of control | dose: 175.0 mg/kg/injection, schedule: Q01DX Z (ip), vehicle: carboxymethylcellulose (CMC) 94 % of control | dose: 350.0 mg/kg/injection, schedule: Q01DX Z (ip), vehicle: carboxymethylcellulose (CMC) 114 % of control

CC(=O)N(C)c1ccc(NC(=O)Nc2cc(C(F)(F)F)ccc2Cl)cc1
inactive: [4] 96 % of control | [5] 94 % of control | [6] 94 % of control

O=C(/C(=N/N=C\c1ccc([N+](=O)[O-])cc1)c1ccccc1)c1ccccc1
inactive: [1] 96 % of control | [2] 96 % of control | [3] 94 % of control

CCCCCCC(C)NCC(C)(C)OC(=O)c1ccc(N)cc1 (stereo not drawn)
inactive: [7] 93 % of control | [12] 101 % of control | dose: 300.0 mg/kg/injection, schedule: Q01DX001 (ip), vehicle: other 93 % of control

CC12CC3(O)CCC1CCC2C(=O)C3 (stereo not drawn)
inactive: [13] 95 % of control | dose: 100.0 mg/kg/injection, schedule: Q04DX003 (ip), vehicle: saline 93 % of control | dose: 200.0 mg/kg/injection, schedule: Q04DX003 (ip), vehicle: saline 96 % of control | dose: 400.0 mg/kg/injection, schedule: Q01DX009 (ip), vehicle: saline 96 % of control | dose: 400.0 mg/kg/injection, schedule: Q04DX003 (ip), vehicle: saline 105 % of control

COC(=O)C1=C(C(=O)OC)C2C=CC1C1(C)NC(=O)C21C (stereo not drawn)
inactive: dose: 100.0 mg/kg/injection, schedule: Q04DX002 (ip), vehicle: Klucel (hydroxypropylcellulose) (HPC) 94 % of control | dose: 200.0 mg/kg/injection, schedule: Q04DX002 (ip), vehicle: Klucel (hydroxypropylcellulose) (HPC) 91 % of control | dose: 400.0 mg/kg/injection, schedule: Q04DX002 (ip), vehicle: Klucel (hydroxypropylcellulose) (HPC) 97 % of control

Source: PubChem BioAssay AID248 (DTP/NCI, 2004)
